Read-outs that look alike come from different tables or passages of the source.
Experiments:
[1] = target: T1, interaction between glucokinase (GK) and glucokinase regulatory protein (GKRP) (Homo sapiens, UniProt Q14397); test: biochemical; type: binding
T1 sequence (Q14397 1-625): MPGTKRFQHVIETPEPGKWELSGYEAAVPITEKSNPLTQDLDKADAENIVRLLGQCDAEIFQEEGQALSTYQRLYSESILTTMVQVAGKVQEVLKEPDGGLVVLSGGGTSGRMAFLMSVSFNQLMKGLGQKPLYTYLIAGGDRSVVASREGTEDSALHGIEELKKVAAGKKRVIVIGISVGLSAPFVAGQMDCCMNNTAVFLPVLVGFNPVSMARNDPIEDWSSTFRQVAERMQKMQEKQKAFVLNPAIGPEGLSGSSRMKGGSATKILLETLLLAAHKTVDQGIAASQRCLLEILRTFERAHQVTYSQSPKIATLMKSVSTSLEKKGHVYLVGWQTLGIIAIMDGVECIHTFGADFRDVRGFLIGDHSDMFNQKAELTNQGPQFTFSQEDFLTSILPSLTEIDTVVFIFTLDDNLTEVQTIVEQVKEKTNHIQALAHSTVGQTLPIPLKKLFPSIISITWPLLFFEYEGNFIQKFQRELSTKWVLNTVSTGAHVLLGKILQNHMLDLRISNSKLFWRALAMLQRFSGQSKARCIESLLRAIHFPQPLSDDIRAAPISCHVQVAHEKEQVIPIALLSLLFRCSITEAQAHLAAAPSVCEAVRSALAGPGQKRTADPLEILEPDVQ
Method: GK-GKRP Binding Assay Protocol
This assay is used to directly measure the interaction between glucokinase (GK) and glucokinase regulatory protein (GKRP). Begin by preparing the following solutions. Assay Buffer: 20 mM Tris, pH 7.5/0.05% BSA/1 mM DTT/1 μM sorbitol-6-phosphate. […] Combine the following reagents in a white 96-well half area plate. Pipette 14 μl of the diluted avi-tagged GKRP into each well. Add 1 μl of compound to be tested and incubate at room temperature for 20 minutes. After 20 minutes, add 5 μl of assay buffer containing 6 nM GK-fluorescein. […] Incubate in a dark room for 2 hours at room temperature. After 2 hours read the plate using an Envision plate reader (Perkin Elmer, Waltham Mass.).

[2] = target: T2, GKRP (Glucokinase Regulatory Protein) with human His-hepatic GK (Homo sapiens, UniProt Q14397); test: biochemical
T2 sequence (Q14397 1-625): T1 sequence (Q14397 1-625)
Method: GKRP LC MS/MS-2 Biochemical Assay
This assay is used to directly measure the formation of ^13C-glucose-6-phosphate from ^13C-glucose by LC MS/MS. Begin by preparing the following solutions: Compound Buffer (CB): 50 mM Tris, pH 7.5/4 mM MgCl2/6% DMSO/fresh 10 mM DTT from 1M frozen stock. Enzyme Buffer (EB): 50 mM Tris, pH 7.5/4 mM MgCl2/6% DMSO/fresh 0.1% BSA/fresh 0.01% Brij-35 (10% BSA and 1% Brij-35 stock). GK (Glucokinase) Working Stock (5×): Dilute human His-hepatic GK to 30 nM in EB buffer. […] After 30 minutes add 10 μl of GK Working Stock (5×). Re-seal the plate and incubate for another 30 minutes at room temperature while mixing. After the second 30 minutes, stop the reaction by the addition of 50 μl of 100% acetonitrile, seal, and mix for 5-10 minutes. Run 10 μl of this sample through the LC MS/MS (API 3200, Applied Biosystems, Carlsbad, Calif.).

[3] = avi-tagged GKRP, GK-fluorescein, AlphaScreen beads, read-out: GK-GKRP IC50 (Binding)
[4] = 13C-glucose-6-phosphate formation, 280 nM GKRP (10×), 30 nM GK (5×), read-out: GK-GKRP EC50 (LC MS/MS-2)

Compound	IC50 [1, 3]	EC50 [2, 4]	EC50 ([2]; GK-GKRP EC50 (LC MS/MS-2), 13C-glucose-6-phosphate formation, 280 nM GKRP (10×), 30 nM GK (5×))	IC50 ([1]; GK-GKRP IC50 (Binding))	EC50 ([2]; GK-GKRP EC50 (LC MS/MS-2))
COC1C[C@H]2COC[C@@H](C1)N2C[C@H]1CN(S(=O)(=O)c2cccs2)CCN1c1ccc(C(C)(O)C(F)(F)F)cc1 (stereo partly drawn) [Example 109, 1,1,1-trifluoro-2-(4-((2S)-2-(((1R,5S)-7-methoxy-3-oxa-9-azabicyclo[3.3.1]non-9-yl)methyl)-4-(2-thiophenylsulfonyl)-1-piperazinyl)phenyl)-2-propanol (endo)]	0.072 µM	0.081 µM			
CC(O)(c1cnc(N2CCN(S(=O)(=O)c3ccc(N)s3)C[C@@H]2CC2CCOCC2)nc1)C(F)(F)F (mixture of isomers) [Example 135, 2-(2-((2S)-4-((5-amino-2-thiophenyl)sulfonyl)-2-(tetrahydro-2H-pyran-4-ylmethyl)-1-piperazinyl)-5-pyrimidinyl)-1,1,1-trifluoro-2-propanol]	0.055 µM	0.108 µM			
CC(C)CN(C[C@H]1CN(S(=O)(=O)c2cccnc2N)CCN1c1ncc(C(O)(C(F)(F)F)C(F)(F)F)cn1)S(C)(=O)=O [Example 230 (2-amino-3-pyridinyl), N-(((2S)-4-((2-amino-3-pyridinyl)sulfonyl)-1-(5-(2,2,2-trifluoro-1-hydroxy-1-(trifluoromethyl)ethyl)-2-pyrimidinyl)-2-piperazinyl)methyl)-N-(2-methylpropyl)methanesulfonamide]	0.064 µM	0.095 µM			
O=S(=O)(c1ccccc1)N1CCN(c2ncc(C(O)(C(F)(F)F)C(F)(F)F)cn2)[C@@H](CN2C3COCC2C(O)C3)C1 (mixture of isomers) [Example 80, 8-(((2S)-4-(phenylsulfonyl)-1-(5-(2,2,2-trifluoro-1-hydroxy-1-(trifluoromethyl)ethyl)-2-pyrimidinyl)-2-piperazinyl)methyl)-3-oxa-8-azabicyclo[3.2.1]octan-6-ol]	0.125 µM	0.136 µM			
CC(O)(c1ccc(N2CCN(S(=O)(=O)c3cccs3)C[C@@H]2CN2C3COCC2C(O)C3)cc1)C(F)(F)F (single isomer, unassigned) [Example 78 Peak #3]	0.033 µM	0.036 µM			
CC(O)(c1ccc(N2CCN(S(=O)(=O)c3cccs3)C[C@@H]2CN2C3COCC2C(O)C3)cc1)C(F)(F)F (single isomer, unassigned) [Example 78 Peak #1]	0.044 µM	0.146 µM			
CC(O)(c1ccc(N2CCN(S(=O)(=O)c3cccs3)C[C@@H]2CS(=O)(=O)c2cccc(F)c2)cc1)C(F)(F)F (mixture of isomers) [Example 189 Peak#1, 1,1,1-trifluoro-2-(4-((2R)-2-(((3-fluorophenyl)sulfonyl)methyl)-4-(2-thiophenylsulfonyl)-1-piperazinyl)phenyl)-2-propanol]	0.374 µM	0.235 µM			
CC(O)(c1ccc(N2CCN(S(=O)(=O)c3cccs3)C[C@@H]2C[S+]([O-])c2ccc(F)cc2)cc1)C(F)(F)F (single isomer, unassigned) [Example 191 Peak#3]	0.259 µM	0.262 µM			
CC(C)N(C[C@H]1CN(S(=O)(=O)c2cccs2)CCN1c1ccc(C(C)(O)C(F)(F)F)cc1)C(C)C (mixture of isomers) [Example 194, 2-(4-((2S)-2-((bis(1-methylethyl)amino)methyl)-4-(2-thiophenylsulfonyl)-1-piperazinyl)phenyl)-1,1,1-trifluoro-2-propanol]	0.205 µM		0.179 µM		
CC(O)(c1ccc(N2CCN(S(=O)(=O)c3cccs3)C[C@@H]2CN(C2CCC2)S(C)(=O)=O)cc1)C(F)(F)F (stereo partly drawn) [Example 212, N-cyclobutyl-N-(((2R)-4-(2-thiophenylsulfonyl)-1-(4-(2,2,2-trifluoro-1-hydroxy-1-methylethyl)phenyl)-2-piperazinyl)methyl) methanesulfonamide]	0.068 µM	0.092 µM			
CC(C)N(C[C@H]1CN(S(=O)(=O)c2cccs2)CCN1c1ccc(C(C)(O)C(F)(F)F)cc1)S(C)(=O)=O (mixture of isomers) [Example 195, N-(1-methylethyl)-N-(((2R)-4-(2-thiophenylsulfonyl)-1-(4-(2,2,2-trifluoro-1-hydroxy-1-methylethyl)phenyl)-2-piperazinyl)methyl)methanesulfonamide]	0.028 µM	0.057 µM			
CC(C)CS(=O)(=O)NC[C@H]1CN(S(=O)(=O)c2cccs2)CCN1c1ccc(C(C)(O)C(F)(F)F)cc1 (mixture of isomers) [Example 210, 2-methyl-N-(((2S)-4-(2-thiophenylsulfonyl)-1-(4-(2,2,2-trifluoro-1-hydroxy-1-methylethyl)phenyl)-2-piperazinyl)methyl)-1-propanesulfonamide]	0.507 µM	0.249 µM			
CC(O)(c1ccc(N2CCN(S(=O)(=O)c3cccs3)C[C@@H]2CNc2ccccc2)cc1)C(F)(F)F (mixture of isomers) [Example 203, 1,1,1-trifluoro-2-(4-((2S)-2-((phenylamino)methyl)-4-(2-thiophenylsulfonyl)-1-piperazinyl)phenyl)-2-propanol]				0.278 µM	0.146 µM
CC(O)(c1ccc(N2CCN(S(=O)(=O)c3cccs3)C[C@@H]2CN(CC2CC2)S(C)(=O)=O)cc1)C(F)(F)F (mixture of isomers) [Example 202, N-(cyclopropylmethyl)-N-(((2S)-4-(2-thiophenylsulfonyl)-1-(4-(2,2,2-trifluoro-1-hydroxy-1-methylethyl)phenyl)-2-piperazinyl)methyl)methanesulfonamide]	0.026 µM	0.039 µM			
O=S(=O)(c1cccs1)N1CCN(c2ncc(C(O)(C(F)(F)F)C(F)(F)F)cn2)[C@@H](CN2C3COCC2C(O)C3)C1 (single isomer, unassigned) [Example 79 Peak #1]	0.049 µM	0.05 µM			
CC(C)N(C[C@H]1CN(S(=O)(=O)c2cccs2)CCN1c1ccc(C(C)(O)C(F)(F)F)cc1)S(=O)(=O)N(C)C (mixture of isomers) [Example 209, N,N-dimethyl-N′-(1-methylethyl)-N′-(((2R)-4-(2-thiophenylsulfonyl)-1-(4-(2,2,2-trifluoro-1-hydroxy-1-methylethyl)phenyl)-2-piperazinyl)methyl)sulfamide]	0.007 µM	0.023 µM			
CC(O)(c1ccc(N2CCN(S(=O)(=O)c3ccc(N)nc3)C[C@@H]2CC2CCOCC2)cc1)C(F)(F)F (mixture of isomers) [Example 127, 2-(4-((2S)-4-((6-amino-3-pyridinyl)sulfonyl)-2-(tetrahydro-2H-pyran-4-ylmethyl)-1-piperazinyl)phenyl)-1,1,1-trifluoro-2-propanol]	0.055 µM	0.058 µM			
CC(O)(c1ccc(N2CCN(S(=O)(=O)c3cccs3)C[C@@H]2CN(CC2CCC2)S(C)(=O)=O)cc1)C(F)(F)F (mixture of isomers) [Example 218, N-(cyclobutylmethyl)-N-(((2S)-4-(2-thiophenylsulfonyl)-1-(4-(2,2,2-trifluoro-1-hydroxy-1-methylethyl)phenyl)-2-piperazinyl)methyl)methanesulfonamide]	0.024 µM	0.017 µM			
C[C@H]1COCCN1C[C@H]1CN(S(=O)(=O)c2cccs2)CCN1c1ccc(C(O)(CO)C(F)(F)F)cc1 (mixture of isomers) [Example 83, 3,3,3-trifluoro-2-(4-((2S)-2-(((3S)-3-methyl-4-morpholinyl)methyl)-4-(2-thiophenylsulfonyl)-1-piperazinyl)phenyl)-1,2-propanediol]		0.019 µM			
CC(C)C1C(=O)NCCN1C[C@H]1CN(S(=O)(=O)c2ccc(N)s2)CCN1c1ncc(C(O)(C(F)(F)F)C(F)(F)F)cn1 (single isomer, unassigned) [Example 184 Peak #2]		0.025 µM			

Reference: patent US8431563B2 (priority 2010, dated 2013)
